Read-outs that look alike come from different tables or passages of the source.
How the values were obtained:
human osteoclasts = test: Cell polarisation (F-actin rings) and resorption by human osteoclasts; format: cell-based
Description: Number of F-actin rings in osteoclast cultures, expressed as percentage of vehicle (0.1% DMSO) control±SEM (n=4-7 experiments with five replicates for each). ** P<0.01 compared to control, ANOVA with Dunnett's multiple comparison test.

MDA-MB231 subclone = test: Boyden chamber chemotaxis assay, Protocol I (ligand concentration gradient); format: cell-based, human; conditions: serum starved cells; test drug (1 μM per Protocol I) in 0.01% DMSO in lower wells; 4 hours
Experimental: 10 μl of the resulting cell suspension was transferred to a haemocytometer and the number of cells per ml of suspension was calculated from the counted cell number. Serum free medium was added to the cell suspension in a quantity necessary to bring the suspension to a cell number of 1×10^6 cells per ml. […]

GPR55 [1] = target: T1, GPR55 (Homo sapiens, UniProt Q9Y2T6); conditions: cited from earlier work; for EC50: source per value in footnotes (Johns 2007, Ryberg 2007, Brown 2007), read-out: GTPγS EC50
T1 sequence (Q9Y2T6 whole entry): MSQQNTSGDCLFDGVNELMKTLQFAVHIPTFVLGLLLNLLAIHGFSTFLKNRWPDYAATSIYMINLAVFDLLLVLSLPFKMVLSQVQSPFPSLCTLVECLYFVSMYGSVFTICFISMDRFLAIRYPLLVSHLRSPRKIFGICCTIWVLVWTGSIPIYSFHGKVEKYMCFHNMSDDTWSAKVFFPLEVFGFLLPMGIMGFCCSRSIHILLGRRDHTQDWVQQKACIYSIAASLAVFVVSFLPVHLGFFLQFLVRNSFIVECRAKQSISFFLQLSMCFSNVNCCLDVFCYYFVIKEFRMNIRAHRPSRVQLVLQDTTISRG

GPR55 [2] = target: T1, GPR55; conditions: cited from earlier work
CB2 [3] = target: T2, CB2 (Homo sapiens, UniProt P34972); conditions: cited from earlier work
T2 sequence (P34972 whole entry, species assumed): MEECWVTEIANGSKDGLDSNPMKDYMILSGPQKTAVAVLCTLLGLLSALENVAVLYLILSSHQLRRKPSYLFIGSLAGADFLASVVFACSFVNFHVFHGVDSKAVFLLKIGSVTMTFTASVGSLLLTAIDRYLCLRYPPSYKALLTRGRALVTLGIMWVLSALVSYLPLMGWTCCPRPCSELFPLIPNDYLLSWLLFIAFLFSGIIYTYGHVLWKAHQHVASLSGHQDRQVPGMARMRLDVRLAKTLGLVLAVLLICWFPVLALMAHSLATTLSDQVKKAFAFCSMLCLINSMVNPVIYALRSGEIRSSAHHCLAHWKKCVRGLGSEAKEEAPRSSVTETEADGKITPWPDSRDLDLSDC

MDA-MB231 = test: Boyden chamber chemotaxis assay, CBD as chemoattractant (FIG. 8); format: cell-based, human; conditions: serum starved cells; CBD with 0.01% DMSO
Experimental: (§1) Cells used for all chemotaxis assays were bathed in their respective serum-free media and incubated for 19 hours prior to experimentation. The serum starved cells were washed with 5 ml PBS and dissociated from their growth plate using 5 ml of non-enzymatic cell dissociation solution. 5 ml of the respective serum free medium was added after dissociation of the cells, and the cell suspension was transferred to a universal container and centrifuged at 2000 rpm for 5 minutes. The supernatant fluid was discarded and the remaining cell pellet was re-suspended in 2 ml of serum free medium.
(§2) 10 μl of the resulting cell suspension was transferred to a haemocytometer and the number of cells per ml of suspension was calculated from the counted cell number. Serum free medium was added to the cell suspension in a quantity necessary to bring the suspension to a cell number of 1×10^6 cells per ml.
Solutions of 10% FBS (with 0.01% DMSO vehicle), 0.01% DMSO vehicle control and 1 μM of test drug (O-1602 in 0.01% DMSO vehicle), were prepared. […]
(§3) Migrated cells were counted using a Leitz microscope. Individual wells and their borders were visualised using a 10× objective lens and cells were then counted using a 40× objective lens. Cells found in one quarter of three non-overlapping 40× fields within each migration well were counted. The same fields were chosen in every well counted. […]

MDA-MB231 cells = test: Boyden chamber migration towards FBS, Protocol II (pre-treatment of cells); format: cell-based, human; conditions: for Tumour cell chemotaxis (migration) to FBS after pre-incubation: 1 μM pre-incubation 30 minutes, 10% FBS, no compound gradient, 4 hours
Experimental: as §1, §2
(§4) Two aliquots of the 1×10^6 cells/ml, cell suspension were prepared, and quantities of 0.1% DMSO and […] (both with 0.1% DMSO vehicle) were added to one aliquot each, to bring the cell suspension concentrations to 0.01% DMSO and 1 μM test compound (with 0.01% DMSO vehicle). The cell suspensions were incubated with each compound for 30 minutes at 37° C. in 5% CO2. […]
as §3
The results for all assays done with each individual drug type were pooled by calculating the mean number of cells migrating in 0.01% DMSO vehicle control wells. The cell number for each individual well was then expressed as a percentage of the vehicle mean.

MDA-MB-231 cells [4] = test: Cultrex Cell Invasion Assay towards FBS; format: cell-based, human; conditions: CBD 1 μM pre-incubation; 24 hours
Experimental: (§5) Cell were cultured to 80% confluence then serum starved overnight prior to beginning the assay. On ice, a 0.5×BME stock solution was prepared from the 5× stock in a conical tube and inverted to mix. 100 μl of BME stock solution was aliquoted into each well of the 24 well plate and the chamber incubated at 37° C. overnight. The following morning cells were harvested, washed once using 1× wash buffer, counted, and re-suspended to a density of 5×10^5 cells ml^−1. The top chamber was then carefully aspirated, taking care not to let chambers dry out, and 100 μl of cells per well added to the top chamber. 500 μl of media per well (with or without chemoattractant) was then added to the lower wells of the chamber. The chamber was then assembled and incubated at 37° C. in a humidified environment for 24 hours. The following day the upper chamber was carefully aspirated and washed with 100 μl of 1× wash buffer, and lower wells washed with 500 μl of wash buffer. 12 μl of Calcein-AM solution was added to 12 mL of cell dissociation fluid, and 500 μl of this solution added to the lower chamber. The chamber was then re-assembled and incubated at 37° C. for one hour. The upper chamber was then removed, and dissolved Calcein-AM was read at 485 nm excitation, 520 nm emission.

[5] = test system: control (empty vector transfected) MCF7 cells; test: Cultrex Cell Invasion Assay, empty vector transfected MCF7; format: cell-based, human
Experimental: as §5, with “emission. […]” for “emission.”

[6] = test system: GPR55 over-expressing MCF7 cells; test: Cultrex Cell Invasion Assay, GPR55 over-expressing MCF7; format: cell-based, human
Experimental: as §5, with “emission. […]” for “emission.”

MDA-MB-231 cells [7] = test: alamarBlue assay of cell viability; format: cell-based, human
CB1 [8] = target: T3, CB1 (Homo sapiens, UniProt P21554); conditions: cited from earlier work
T3 sequence (P21554 whole entry, species assumed): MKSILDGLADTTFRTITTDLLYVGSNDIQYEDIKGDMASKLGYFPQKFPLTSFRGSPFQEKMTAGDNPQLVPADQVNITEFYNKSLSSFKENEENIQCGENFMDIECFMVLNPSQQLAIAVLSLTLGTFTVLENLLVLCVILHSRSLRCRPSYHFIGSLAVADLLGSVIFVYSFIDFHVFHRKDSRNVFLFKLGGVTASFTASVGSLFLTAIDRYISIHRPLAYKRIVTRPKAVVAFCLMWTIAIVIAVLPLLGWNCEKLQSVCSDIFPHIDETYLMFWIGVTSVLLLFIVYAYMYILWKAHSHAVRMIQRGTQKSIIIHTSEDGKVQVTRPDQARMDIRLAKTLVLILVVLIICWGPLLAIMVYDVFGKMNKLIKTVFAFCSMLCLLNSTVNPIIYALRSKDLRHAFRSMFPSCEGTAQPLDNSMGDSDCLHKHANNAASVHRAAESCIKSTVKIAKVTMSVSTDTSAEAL

GPR55 [9] = target: T1, GPR55; conditions: footnote of Table 1
CB1 [10] = target: T3, CB1; conditions: Ryberg et al., 2007, read-out: GTPγS EC50; cited from earlier work
CB2 [11] = target: T2, CB2; conditions: Ryberg et al., 2007, read-out: GTPγS EC50; cited from earlier work
[12] = test system: vector transfected MCF7 cells; test: Boyden chamber chemotaxis assay, vector transfected MCF7; format: cell-based, human; conditions: LPI pre-incubation 1 μM
Experimental: as §1, §2, §4

[13] = test system: MCF7 cells transiently over-expressing GPR55; test: Boyden chamber chemotaxis assay, GPR55 over-expressing MCF7; format: cell-based, human; conditions: LPI pre-incubation 1 μM
Experimental: as §1, §2, §4

GPR55 [14] = target: T1, GPR55; conditions: Oka et al., 2007, read-out: ERK Phosphorylation EC50; cited from earlier work
MG-63 cells = test: Endocannabinoid levels in MG-63 cells treated with PTH; format: cell-based, human
Experimental: Cells were washed in PBS and treated for 90 minutes with 200 ug/ml LPS. Values represent the mean±SEM from 3 separate donors. […] Levels of anandamide were undetectable in two control samples which precludes statistical analysis. (C) 2-AG levels in MG-63 cells treated with PTH. Cells were treated for the times indicated with 40 nM or 100 nM PTH. The results are expressed as percentage of control and are the means±SEM (n=2-4 experiments, duplicate samples for each), ** P<0.01 compared to control, ANOVA with Dunnett's multiple comparison test.

Molecule: CCCCC/C=C\C/C=C\C/C=C\C/C=C\CCCC(=O)OC(CO)CO [2-AG]
- Resorptive activity (human osteoclasts; 10 nM and 100 nM): significant increase
- Cell polarisation i.e. number of F-actin rings (human osteoclasts; 10 nM and 100 nM, 5 days): significant increase
- Stimulatory effect on polarisation and resorption at higher concentration (human osteoclasts; 1 μM): lost

Molecule: CCCCC/C=C\C/C=C\C/C=C\C/C=C\CCCC(=O)NCCO [AEA, anandamide]
- Cell migration compared to vehicle control (chemoattractant effect) (MDA-MB231 subclone): significant increase in cell number
- F-actin ring number (human osteoclasts; 10 nM to 1 μM): did not result in a significant change
- Resorption (human osteoclasts; 10 nM to 1 μM): significantly stimulate
- EC50 (GPR55 [1]): 0.018 µM
- Drug action on receptors: GPR55 (GPR55 [2]): Agonist
- Drug action on receptors: CB2 (CB2 [3]): Agonist

Molecule: C=C(C)[C@@H]1CCC(C)=C[C@H]1c1c(O)cc(CCCCC)cc1O [CBD, Cannabidiol]
- Tumour cell migration compared to control (chemoattractant effect) (MDA-MB231): no effect on tumour cell migration
- Tumour cell chemotaxis (migration) to FBS after pre-incubation (MDA-MB231 cells): significantly inhibits
- Effect on LPI-increased chemotaxis to FBS (MDA-MB231 cells; co-incubation LPI (1 μM) combined with CBD (1 μM)): prevented
- Tumour cell invasion towards FBS after pre-incubation (MDA-MB-231 cells [4]): significantly attenuated
- Basal invasion [5]: no effect
- FBS-induced invasion [6]: significantly inhibited
- Cytotoxic action (cell viability) (MDA-MB-231 cells [7]; 1 μM treatment for 24 hours (invasion assay)): no cytotoxic action
- Cytotoxic action (cell viability) (MDA-MB-231 cells [7]; concentrations up to 10 μM, treatment for 4 hours (migration assay)): no cytotoxic action
- IC50 (GPR55 [1]; antagonist, Brown, 2007, read-out: GTPγS IC50): 0.35 µM
- Drug action on receptors: GPR55 (GPR55 [2]): Antagonist^2
- Drug action on receptors: CB1 (CB1 [8]): Antagonist^7

Molecule: CCCCCCC(C)(C)c1ccc([C@@H]2C[C@H](O)CC[C@H]2CCCO)c(O)c1 [CP55940, (−)-cis-3-[2-hydroxy-4-(1,1-dimethylheptyl)phenyl]-trans-4-(3-hydroxypropyl)cyclohexanol]
- Drug action on receptors: GPR55 (GPR55 [2]): agonists

Molecule: CCCn1c(C)c(C(=O)c2cccc3ccccc23)c2ccccc21 [JWH015]
- EC50 (GPR55 [1]): 0.004 µM
- Drug action on receptors: GPR55 (GPR55 [2]): Agonist

Molecule: C=C(C)[C@@H]1CCC(C)=C[C@H]1c1c(C)cc(O)cc1O [O-1602]
- Selectivity for GPR55 versus CB1 and CB2 (in words) (GPR55 [9]): Compounds such as O-1602 and LPI are therefore thought to be relatively selective GPR55 agonists, whilst AEA has a broad specificity.
- Cell migration compared to vehicle control (chemoattractant effect) (MDA-MB231 subclone): significant increase in cell migration
- EC50 (CB1 [10]): > 30 µM
- EC50 (CB2 [11]): > 30 µM
- Drug action on receptors: GPR55 (GPR55 [2]): Agonist
- Drug action on receptors: CB1 (CB1 [8]): No action^3
- Drug action on receptors: CB2 (CB2 [3]): No action

Molecule: CCCCCc1cc(O)c2c(c1)OC(C)(C)[C@@H]1CCC(C)=C[C@@H]21 [THC, Δ-9-Tetrahydrocannabinol]
- Drug action on receptors: GPR55 (GPR55 [2]): agonists

Molecule: lysophosphatidylinositol [LPI]
- Selectivity for GPR55 versus CB1 and CB2 (in words) (GPR55 [9]): Compounds such as O-1602 and LPI are therefore thought to be relatively selective GPR55 agonists, whilst AEA has a broad specificity.
- Tumour cell chemotaxis (migration) to FBS after pre-incubation (MDA-MB231 cells): significantly increases
- Migration towards FBS [12]: unaffected
- FBS-induced migration [13]: enhanced
- EC50 (GPR55 [14]): ~0.2 µM
- Drug action on receptors: GPR55 (GPR55 [2]): Agonist^6

B1: PTH: PTH, 40 nM or 100 nM, activates the PTH receptor (peptide, UniProt P01270 32-115, looked up)
Parathyroid hormone: SVSEIQLMHNLGKHLNSMERVEWLRKKLQDVHNFVALGAPLAPRDAGSQRPRKKEDNVLVESHEKSLGEADKADVNVLTKAKSQ
modifications: Parathyroid hormone
- Levels of 2-AG detected in MG-63 cells (MG-63 cells; prolonged treatment with 40 nM or 100 nM PTH): significant increase
- Levels of anandamide detected in MG-63 cells (MG-63 cells; prolonged treatment with PTH, data not shown): no change

Reference: patent publication US20110076274A1, “MATERIALS AND METHODS RELATING TO A G-PROTEIN COUPLED RECEPTOR” (priority 2008, published 2011)
